{
  "source": "patent US7154028B2",
  "about": "“Gibberellin 2-oxidase gene, functions and uses thereof” (National Agriculture and Bio-Oriented Research Organization, priority 2002, dated 2006)",
  "molecules": {"B1": {"name": "OsGA2ox3 cDNA: full-length rice GA2-oxidase cDNA (SEQ ID NO: 3) fused to the rice actin promoter, introduced into rice (nucleic acid, listed as Oryza sativa)", "DNA": "ATGGTGGTTCTCGCTGGCCCGCCCGCCGTCGATCACATCCCGCTGCTGAGGTCGCCGGACCCCGGCGACGTCTTCTCCGGCGTGCCGGTCGTCGACCTCGGCAGCCCCGGCGCGGCGAGGGCCGTGGTGGACGCCTGCGAGCGGTACGGGTTCTTCAAGGTCGTCAACCACGGCGTGGCCACGGACACGATGGACAAGGCCGAGTCGGAGGCCGTCAGGTTCTTCTCCCAGACGCAGCCCGACAAGGACCGCTCCGGCCCGGCCTACCCGTTCGGGTACGGCAGCAAGCGGATCGGGTTCAATGGCGACATGGGGTGGCTCGAGTACCTCCTCCTCGCCCTCGACGACGCGTCGCTCGCCGACGCCTGCACCGTCCCGTCCTGCGCGGTCTTCCGGGCCGCTCTGAACGAGTACATCTCGGGGGTGCGGAAGGTGGCGGTGCGGGTGATGGAGGCGATGTCGGAGGGGCTGGGCATTGCGCAGGCGGACGCGCTGAGCGCGCTGGTGACGGCGGAAGGGAGCGACCAGGTGTTCCGCGTGAACCACTACCCGCCGTGCCGCGCGCTGCAGGGGCTCGGCTGCAGCGTCACCGGCTTCGGCGAGCACACCGACCCGCAGCTCGTCTCCGTGCTCCGCTCAAACGGCACGTCCGGCCTGCAGATCGCGCTCCGCGACGGCCAGTGGGTGTCCGTGCCCTCCGACCGCGACTCCTTCTTCGTCAACGTCGGCGACTCGTTGCAGGTTCTGACCAATGGGAGGTTCAAGAGCGTGAAGCACAGGGTGGTGGCCAACAGCCTAAAGTCTAGGGTTTCCTTCATCTACTTTGGAGGGCCACCGTTAGCACAGAGGATTGCACCATTGCCACAGCTGCTGGGGGAGGGAGAGCAGAGCCTGTACAAGGAGTTCACATGGGATGAGTACAAGAAGGCTGCCTACAAATCAAGGCTTGGAGACAACAGGCTGGCCCAGTTTGAGAAGAAGTAG", "modifications": "rice actin promoter fused, not cited; CDS (1)..(984)"}},
  "key": {"OsGA2ox1 [1]": {"system": "OsGA2ox1", "conditions": "cited from earlier work"}, "OsGA2ox3 [2]": {"biological_target": "T1, OsGA2ox3 (Oryza sativa subsp. japonica, UniProt Q8S0S6)", "T1 construct": "general method only; made in house; host or cells: E. coli", "T1 sequence (Q8S0S6 whole entry)": "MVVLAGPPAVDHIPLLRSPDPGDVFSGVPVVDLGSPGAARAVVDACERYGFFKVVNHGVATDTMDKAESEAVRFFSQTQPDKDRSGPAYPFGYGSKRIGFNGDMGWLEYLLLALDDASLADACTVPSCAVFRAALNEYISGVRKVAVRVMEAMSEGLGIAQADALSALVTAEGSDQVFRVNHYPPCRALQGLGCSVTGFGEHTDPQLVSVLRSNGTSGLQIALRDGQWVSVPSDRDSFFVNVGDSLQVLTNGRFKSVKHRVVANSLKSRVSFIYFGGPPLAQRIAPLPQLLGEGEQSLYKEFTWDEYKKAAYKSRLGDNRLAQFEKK", "assay": "Enzyme assay with recombinant OsGA2ox3 (E. coli lysate), products identified by GC-MS", "assay_type": "biochemical", "conditions": "labeled substrate incubated with recombinant OsGA2ox3, full scan GC-MS", "excerpt": "A cell lysate obtained from E. coli heterologously expressing OsGA2ox3 cDNA was used for enzyme assay as previously described (Sakamoto, T. et al., Plant Physiol., 125(3): 1508–16, (2001)). […] However, GA20 was metabolized to a GA29-catabolite. Furthermore, the metabolism of GA29 to a GA29-catabolite was confirmed by metabolism experiments."}, "OsGA2ox3 [3]": {"system": "OsGA2ox3", "assay": "RNA gel blot of OsGA2ox3 transcription in treated rice seedlings", "assay_type": "in vivo, Oryza sativa", "conditions": "for transcription level of the OsGA2ox3 gene: FIG. 6B; for Transcription level of OsGA2ox3: wild-type rice seedlings, 10 μM, three days, FIG. 6A", "procedure": "(§1) Seeds of wild-type rice (Oryza sativa L., i.e. Nipponbare) were sterilized in 1% NaClO for one hour, and seeded on agar medium. Seedlings were grown in a growth chamber under continuous light at 30° C. To investigate the influence of GA3 and uniconazole on GA-oxidase expression, wild-type rice seedlings were transferred to a hydroponic culture system containing 10 μM GA3 or 10 μM uniconazole, and allowed to grow for three days. Ten-micrograms of RNAs were prepared from each sample, and gel blot analysis was performed as previously described (Sakamoto, T. et al., Plant Physiol., 125(3): 1508–16, 2001). The influence of uniconazole, a suppressor of GA3 and GA biosyntheses, on the transcriptional level of OsGA2ox2 and OsGA2ox3 (FIG. 6A) was examined. Transcription level of OsGA2ox3 was increased by GA3 treatment, but decreased by uniconazole (FIG. 6A) treatment. […] Transcription of the […] gene was not detected even after GA3 treatment."}, "AtGA2ox2": {"system": "AtGA2ox2", "conditions": "GA-deficient mutants, after treatment with GA3; cited from earlier work"}, "OsGA20ox1": {"system": "OsGA20ox1", "assay": "RNA gel blot of GA20-oxidase gene transcription in treated rice seedlings", "assay_type": "in vivo, Oryza sativa", "conditions": "wild-type rice seedlings, 10 μM, three days, relative to the effect on OsGA2ox3", "procedure": "as §1"}, "OsGA2ox1 [4]": {"system": "OsGA2ox1", "conditions": "GA3-treatment; cited from earlier work"}, "AtGA2ox1": {"system": "AtGA2ox1", "conditions": "GA-deficient mutants, after treatment with GA3; cited from earlier work"}, "wild type rice": {"system": "wild type rice", "assay": "Overexpression of OsGA2ox3 cDNA in transgenic rice", "assay_type": "in vivo, Oryza sativa", "procedure": "As previously described (Sakamoto, T. et al., Plant Physiol., 125(3): 1508–16, 2001), the full-length OsGA2ox3 cDNA was inserted between the rice actin promoter and the polyadenylation signal of nopaline synthase (NOS) present in a hygromycin resistant binary vector pAct-Hm2. This construct was introduced into Agrobacterium tumefaciens EHA101. Agrobacterium-mediated transformation was conducted as described in the literature (WO 01/06844 A1). Transgenic plants were selected on a medium containing 50 mg/L hygromycin.\nTo test the activity of the OsGA2ox3 gene product in vivo, the full-length OsGA2ox3 cDNA was fused to the rice actin promoter and introduced into wild type rice by Agrobacterium-mediated gene transfer. […] Leaf blades of these plants were dark green, and they were shorter and wider than those of the wild type plants. All of these phenotypes are typical for GA-deficient dwarf rice plants."}},
  "data": [
    {"molecule": "C=C1C[C@]23C[C@@]1(O)CC[C@H]2[C@@]12CC[C@H](O)[C@@](C)(C(=O)O1)[C@H]2[C@@H]3C(=O)O", "note": "[GA1]", "values": [
      {"measurement": "product of metabolism by OsGA2ox1 gene product", "setting": "OsGA2ox1 [1]", "value": "GA8"},
      {"measurement": "Product", "setting": "OsGA2ox3 [2]", "value": "GA8"},
      {"measurement": "Product", "setting": "OsGA2ox3 [2]; listed as [^2H2]GA1", "value": "[^2H2]GA8"}
    ]},
    {"molecule": "C=C1C[C@]23C[C@@]1(O)CC[C@H]2[C@@]12C=C[C@H](O)[C@@](C)(C(=O)O1)[C@H]2[C@@H]3C(=O)O", "note": "[GA3]", "values": [
      {"measurement": "Transcription of the OsGA2ox3 gene", "setting": "OsGA2ox3 [3]; after GA3 treatment, detection", "value": "not detected"},
      {"measurement": "transcription level of the OsGA2ox3 gene", "setting": "OsGA2ox3 [3]; one hour after GA3 treatment", "value": "increased"},
      {"measurement": "transcription level of the OsGA2ox3 gene", "setting": "OsGA2ox3 [3]; six hours after GA3 treatment", "value": "decreased to a level that was even lower than the transcription level observed before GA3 treatment"},
      {"measurement": "Transcription level of OsGA2ox3", "setting": "OsGA2ox3 [3]", "value": "increased"},
      {"measurement": "transcription levels of AtGA2ox2", "setting": "AtGA2ox2", "value": "increased"},
      {"measurement": "transcriptional level of the OsGA20ox1 gene", "setting": "OsGA20ox1", "value": "completely reversed"},
      {"measurement": "transcription level of OsGA2ox1", "setting": "OsGA2ox1 [4]", "value": "not affected"},
      {"measurement": "transcription levels of AtGA2ox1", "setting": "AtGA2ox1", "value": "increased"}
    ]},
    {"molecule": "C=C1C[C@]23C[C@@]1(O)CC[C@H]2[C@@]12CCC[C@@](C)(C(=O)O1)[C@H]2[C@@H]3C(=O)O", "note": "[GA20, gibberellin A20]", "values": [
      {"measurement": "product of metabolism by OsGA2ox1 gene product", "setting": "OsGA2ox1 [1]", "value": "GA29"},
      {"measurement": "Product", "setting": "OsGA2ox3 [2]", "value": "GA29-catabolite"},
      {"measurement": "Product", "setting": "OsGA2ox3 [2]; listed as [^2H2]GA20", "value": "[^2H2]GA29-catabolite"}
    ]},
    {"molecule": "C=C1C[C@]23C[C@@]1(O)CC[C@H]2[C@@]12C[C@H](O)C[C@@](C)(C(=O)O1)[C@H]2[C@@H]3C(=O)O", "note": "[GA29, gibberellin A29]", "values": [
      {"measurement": "Product", "setting": "OsGA2ox3 [2]", "value": "GA29-catabolite"},
      {"measurement": "Product", "setting": "OsGA2ox3 [2]; listed as [^2H2]GA29", "value": "[^2H2]GA29-catabolite"}
    ]},
    {"molecule": "CC(C)(C)C(O)/C(=C\\c1ccc(Cl)cc1)n1cncn1", "note": "(centres unmarked) [uniconazole]", "values": [
      {"measurement": "Transcription level of OsGA2ox3", "setting": "OsGA2ox3 [3]", "value": "decreased"},
      {"measurement": "transcriptional level of the OsGA20ox1 gene", "setting": "OsGA20ox1", "value": "completely reversed"}
    ]},
    {"molecule": "B1", "values": [
      {"measurement": "phenotype of transgenic plants", "setting": "wild type rice; rice actin promoter, 27 independent lines, FIG. 5", "value": "extreme dwarf phenotypes"},
      {"measurement": "flowering of transgenic plants", "setting": "wild type rice; wild type flowered about three months after seeding", "value": "did not flower even after four months"}
    ]}
  ]
}
